Where two headings read alike, the source gives them in different places.
How the values were obtained:
[1] = design: method as in PMID 26809888; settings: administered at the end of sustained ischemia; cited from earlier work
[2] = tested on: perivascular adipose tissue; design: method as in PMID 26120822; settings: obese rats, through H2S release; cited from earlier work
[3] = DPPH radical scavenging assay; settings: for IC50: without extract
Experimental: DPPH is a stable free radical with a deep violet color that changes to yellow when neutralized by an electron or hydrogen radical, indicating the antioxidant activity of the sample being tested. The DPPH radical scavenging abilities were investigated following the method outlined by Shimamura et al., with minor adjustments. In this study, a cardiovascular tissue homogenate was used to induce H2S release from the dithioacetate derivatives 22 and 24, as well as GYY4137. A mixed solution of 1.2 mL of methanol and 800 µL of 0.1 M Tris-HCl buffer (pH 7.4) served as the blank. 1 mL DPPH solution was added to a mixture of methanol and 0.1 M Tris-HCl buffer (200:800 µL). After mixing, the absorbance was recorded at 517 nm on a UV-1600 PC VWR spectrophotometer (VWR, China). To avoid any potential interference from the heart extract in the assay, we measured the absorbance after adding different volumes of the extract into the mixture. These measurements were taken both immediately and after 30 min of incubation.
The DPPH antioxidant assay was performed according to the following procedures. 1 mL of DPPH solution was added to a mixture of 200 µL of the methanolic sample solution and 800 µL of 0.1 M Tris-HCl buffer (pH = 7.4). For the groups containing the extract, the extract was introduced into a mixture of the sample solution in PBS buffer, 0.1 M Tris-HCl buffer, and DPPH (200:800:1000 µL). Considering that GYY4137 produces H2S upon hydrolysis, it was introduced last following the addition of the extract into a solution of PBS buffer, 0.1 M Tris-HCl buffer, and DPPH maintained at the same ratio. The same protocol was employed for NaHS without the addition of the extract. After mixing, the absorbance was promptly recorded, after which the solutions were incubated in the dark at room temperature for 30 min before the absorbance was measured again. The test samples were prepared and assayed at varying concentrations using a 2-fold serial dilution method, starting from a concentration of 2 mM. Each investigation was performed in triplicate, and the antioxidant activity was based on the absorbance recorded at 517 nm. Ascorbic acid (AA), GYY4137, and NaHS served as positive controls, while the unmodified nucleosides were used as reference compounds.
The inhibition ratio (IR) was calculated as follows: [drawing 1] where Ac is the absorbance when methanol is added instead of the sample and As is the absorbance when the testing sample solution is added.
The antioxidant capacity was expressed as the concentration needed to achieve a 50% inhibition of the free radical (IC50). The IC50 values were calculated by plotting the percent of inhibition as a function of sample concentration.

[4] = ABTS radical cation decolorization assay; settings: 0.1 mM, compared with parent dithioacetates 22 and 24
Experimental: The ABTS decolorization assay was carried out as described by Szoke et al.[54] Briefly, the method is based on the scavenging of (2,2′-azinobis-(3-ethylbenzothiazoline-6-sulfonic acid) ABTS^•+ radical cation. The decolorization caused by the compound is compared to the decolorization induced by Trolox (6-hydroxy-2,5,7,8-tetramethylchroman-2-carboxylic acid), and expressed as Trolox equivalent antioxidant capacity (TEAC) value. TEAC values were expressed as Trolox equivalents calculated from (Ai − Af)antioxidant/(Ai − Af) Trolox at 0.1 mM concentrations. Briefly, a total of 10 µL sample, 20 µL of Myoglobin Working Solution, and 150 µL of ABTS Substrate Working Solution were mixed and incubated for 5 min at room temperature. At the end of incubation […] of Stop Solution was added and endpoint absorbance at 405 nm was read. All experiments were performed in triplicates and repeated three times.

[5] = tested on: anaesthetized Sprague-Dawley rats; test: Cardiac effects by ECG and echocardiography in anaesthetized rats; type: in vivo, rat; settings: 2 mg/kg i.v.
Experimental: The animals received humane care, and all experimental procedures were carried out in accordance with the “Principles of Laboratory Animal Care” by EU Directive 2010/63/EU. All experimental protocols were approved by the local Ethics Committee of University of Debrecen (25/2023/DEMÁB). Animal experiments are reported in compliance with the ARRIVE guidelines. Anesthesia was carried out using ketamine/xylazine mixture (100/10 mg/kg, i.m.). The chest was shaved and the animal was placed onto a heated pad (VisualSonics SR200, VisualSonics, Amsterdam, The Netherlands). The lateral tail vein was cannulated using a heparinized 26G i.v. cannula (BD Neoflon, BD Medical, NJ, USA). B-mode and M-mode echocardiography was carried out before and 30 s after the intravenous administration of the compounds. A high-resolution ultrasound machine (Vevo 3100 Imaging Station, VisualSonics, Amsterdam, The Netherlands) equipped with a […] transducer (MX201) was used for assessing cardiac parameters. Traces were obtained from the parasternal long axis view (PLAX). A B-mode video and an M-mode trace was recorded, and the following parameters were then offline analysed: left ventricle (LV) end-systolic and end-diastolic volume (LVESV, LVEDV, respectively) fractional shortening (FS) and ejection fraction (EF) and stroke volume (SV).
A 3-channel ECG was continuously recorded during the experiments (Vevo monitor ECG, VisualSonics, Amsterdam, The Netherlands). On the recorded ECG data, RR, PR and QT intervals, and heart rate (HR) were determined before and 30 s after the administration of the drugs, and 6 consecutive cardiac cycles were averaged for each parameter.
Statistical analyses for the in vivo studies were carried out using the GraphPad Prism 9.0 software (GraphPad Software, San Diego, CA, USA). Data distribution was assessed by the Shapiro-Wilk normality test, and paired t-test were used to determine the differences between the baseline (drug free) and endpoint (treated) parameters in each group. A multiple comparison was also carried out between the treatment groups by using one-way ANOVA with Tukey multiple comparison test. Data was shown as mean ± SD, and differences with p < 0.05 were considered significant.

[6] = tested on: SARS-CoV-2 (strain hCoV-19/Czech Republic/NRL_6632_2/2020); test: Anti-SARS-CoV-2 cytopathic-effect-based assay in Calu-3 cells (CellTiter-Glo); type: cell-based; settings: Severe acute respiratory syndrome coronavirus 2, compound added 2 h after infection, MOI 0.3, read after two days, read-out: EC50 ± SE, anti-SARS-CoV-2 activity
[7] = Cytotoxicity in Calu-3 cells (CellTiter-Glo); type: cell-based, human; settings: human
Experimental: Cytotoxicity was evaluated by incubating the same two-fold serial dilutions of each compound with Calu-3 cells as above in the absence of the virus. Following two days incubation at 37 °C in 5% CO2, the cell viability was determined as above. The compound concentrations resulting in 50% reduction of cell viability (CC50) were calculated from plots of percentage of luminescence versus log10 drug concentration as above. Remdesivir was used as control in both assays.

SARS-CoV-2 = type: cell-based; settings: medium of Calu-3 cells infected 2 days at the highest compound concentration, plaque assay in Vero E6 cells
[8] = anaesthetized SD rats, 30 s after administration, mean ± SD

NC(=S)c1ccc(OC[C@H]2O[C@@H](n3cnc4c(N)ncnc43)[C@H](O)[C@@H]2O)cc1 [Compound 1]
effect on infarct size [1]: significantly reduced infarct size

Nc1ncnc2c1ncn2[C@@H]1O[C@H](COP(O)(O)=S)[C@@H](O)[C@H]1O [Compound 2]
effect on anti-contractile effects of perivascular adipose tissue [2]: restore the anti-contractile effects of perivascular adipose tissue in obese rats

Nc1nc2c(ncn2[C@@H]2O[C@H](COP(O)(O)=S)[C@@H](O)[C@H]2O)c(=O)[nH]1 [Compound 3]
effect on anti-contractile effects of perivascular adipose tissue [2]: restore the anti-contractile effects of perivascular adipose tissue in obese rats

Nc1ncnc2c1ncn2[C@@H]1O[C@H](CS)[C@@H](O)[C@H]1O [Compound 34, 5′-Deoxy-5′-thioadenosine]
DPPH inhibition ratio after 30 min incubation ([3]; 2 mM, after 30 min incubation): 90%
DPPH inhibition ratio immediately ([3]; 2 mM, immediately): 70–80%
IC50 ([3]; after 30 min incubation, read-out: DPPH IC50 30 min): 580 µM
DPPH activity lower than that of ascorbic acid ([3]; from IC50 values, relative to ascorbic acid): 10 times
IC50 ([3]; measured immediately, read-out: DPPH IC50 immediately): 720 µM
ABTS antioxidant activity (Trolox equivalents), in words [4]: higher antioxidant activity than the parent dithioacetate derivatives
Ejection Fraction [5, 8]: 82.14±5.877%
Heart rate [5, 8]: 97.25±24.66 bpm
PR interval [5, 8]: 49.43 ± 6.973 ms
QT interval [5, 8]: 158.3 ± 35.8 ms
Stroke Volume [5, 8]: 335.6 ± 68.82 µL
duration of negative chronotropic action compared with adenosine ([5]; anaesthetized rats): their duration of action was longer
heart block (in words) ([5]; anaesthetized rats): None of the new compounds (22, 24, and 34) induced complete heart block or pauses

CCC(CC)COC(=O)[C@H](C)N[P@](=O)(OC[C@H]1O[C@@](C#N)(c2ccc3c(N)ncnn23)[C@H](O)[C@@H]1O)Oc1ccccc1 [Remdesivir, reference compound]
EC50 [6]: 0.5 ± 0.26 µM
CC50 at 2 days [7]: > 10 µM
SARS-CoV-2 titer reduction (SARS-CoV-2): 7.1 log10 PFU/mL

Reference: publication PMC11754443, “Synthesis, H2S releasing properties, antiviral and antioxidant activities and acute cardiac effects of nucleoside 5′-dithioacetates” (Scientific Reports, 2025)
